The text below walks through data of patent US20060052435A1, “Selective dopamin d3 receptor agonists for the treatment of sexual dysfunction” (priority 2001, published 2006).

The conditions of data set [1]: ferret, in vivo, sc.
Another data set concerns ferrets. Description: 7-OH-DPAT-induced emesis in the ferret. In kind it is in vivo. The note with it: s.c.; minimum dose completely inhibiting emesis in all animals, n = 3.
Data set [2] concerns the target human recombinant D2short (hD2s) receptors (Homo sapiens, UniProt P14416). Description: inhibition of binding of [3H]-spiperone. The note with it: n = 3-11; read-out: Affinity estimates (pKi ± s.e.m.) hD2s (converted).

Chain of human recombinant D2short (hD2s) receptors (P14416 1-414 isoform P14416-2): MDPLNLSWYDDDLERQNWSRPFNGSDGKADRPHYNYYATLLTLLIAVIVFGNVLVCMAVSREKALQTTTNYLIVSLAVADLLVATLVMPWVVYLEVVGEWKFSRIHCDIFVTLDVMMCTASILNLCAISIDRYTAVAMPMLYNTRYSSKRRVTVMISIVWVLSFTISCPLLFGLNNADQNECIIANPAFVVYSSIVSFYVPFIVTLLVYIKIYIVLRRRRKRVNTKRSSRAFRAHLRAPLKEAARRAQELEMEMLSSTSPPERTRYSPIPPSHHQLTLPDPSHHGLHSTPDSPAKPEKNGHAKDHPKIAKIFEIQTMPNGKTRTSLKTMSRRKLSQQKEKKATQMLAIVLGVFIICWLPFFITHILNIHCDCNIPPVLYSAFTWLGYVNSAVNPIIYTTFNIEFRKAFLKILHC

On to `CCc1cc(Cl)c(OC)c(C(=O)NC[C@@H]2CCCN2CC)c1O` [(S)-eticlopride], for which the “Brain conc^n” value in data set [1] worked out at 377 ng/g. In addition, in the data set on ferrets, the “Antagonist potency ED100 versus 7-OH-DPAT-induced emesis” value was 0.03 mg/kg. For the same compound, in data set [2], the Ki is 0.501 nM.
